Test results reported in PubChem BioAssay AID179 (DTP/NCI, 2004).
Several values for one entry are separate records, joined by “and”; a condition that tells them apart may be missing. Equal values may be shown once. Activity calls are given as the source filed them.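 The calls were made as follows: active = compounds giving half or more protection of infected cells from virus-caused growth loss, again on retest; inactive = the rest.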

Test system: CEM cells HIV-1 protection, formazan growth assay
Test: NCI AIDS Antiviral Assay
Conditions: for IC50: measured here: growth of uninfected CEM cells
How it was run: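 Human CEM cells, uninfected and HIV-1-infected, exposed to five drug concentrations; growth measured by soluble formazan assay and scored as percent protection from infection, with protecting compounds retested.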

Row | SMILES | EC50 | IC50 | outcome
1 | COc1cc2[nH]c(=O)[nH]c2c2c(C)c[nH]c12 | > 200 µM | > 200 µM | 
2 | COc1cccc(/C=N/NC(=O)CN(C)C)c1O | > 200 µM | 51.3 µM | 
3 | O=C1c2ccccc2C2(c3ccc(Cl)cc3)N[C@H]3CCCC[C@@H]3N12 (stereo partly specified) | > 200 µM | 141 µM | 
4 | Cc1c(C#N)c(N)[nH]c(=S)c1C#N | > 200 µM | > 200 µM | 
5 | C[C@H]1SC(c2ccc(Cl)cc2Cl)N(NC(=O)c2ccncc2)C1=O (stereo partly specified) | > 200 µM | 33.9 µM | 
6 | CN(C)c1nncc2[nH]cnc12 | > 200 µM | > 200 µM | 
7 | CC(C)(C)C(=O)C(c1ccc(-c2cscn2)cc1)c1ccc(-c2cscn2)cc1 | > 2.51 µM | > 2.51 µM | 
8 | O=C(Nc1ccccc1)C(=O)C(C(=O)c1ccccc1)C(c1ccccc1)c1ccccc1 (stereo unspecified) | > 200 µM | 37.2 µM | 
9 | CN1C(=O)NC2(O)c3ccccc3C(=O)C12O (stereo unspecified) | > 1070 µM | > 1070 µM | 
10 | N#Cc1ccc(N=NN2CCCC2)cc1 | > 200 µM | 17.8 µM | 
11 | Cn1c(N)c(-c2c3ccccc3nc3ccccc23)c(=O)n(C)c1=O | > 40.7 µM | > 40.7 µM | 
12 | CC(=O)OC1C(CN2CCOC2=O)OC(n2ccc(=O)[nH]c2=O)C1OC(C)=O (stereo unspecified) | > 200 µM | > 200 µM | 
13 | O=C1C2=Nc3ccccc3C(O)N2c2ccccc21 (stereo unspecified) | > 200 µM | 69.2 µM | 
14 | O=C1C2=C(C(=O)c3ccccc31)C(O)(S(=O)(=O)O)C(O)(S(=O)(=O)O)C1N=CC=CC21 (stereo unspecified) | > 200 µM | 3.39 µM | 
15 | CSC1(C(=O)O)C2CCC3C2CCC31 (stereo unspecified) |  |  | inactive
16 | COC(=O)c1ccc(CSc2ccc(OC)cc2)cc1 |  |  | inactive
17 | O=c1c2nn3c(=O)n(-c4ccccc4)c(=O)c3nn2c(=O)n1-c1ccccc1 | > 200 µM | > 200 µM | 
18 | Cc1cc(C)nc(NS(=O)(=O)c2ccc(Nc3c4ccccc4nc4ncccc34)cc2)n1 |  |  | inactive
19 | O=c1c2ccc(Cl)cc2nc2nc(-c3ccccc3)c3cc(Cl)ccc3n12 | > 200 µM | > 100 µM | 
20 | Cc1nn(C(=O)c2ccccc2O)c2c1C(c1ccc3ccccc3c1O)SC(N)=N2 (stereo unspecified) | > 2 µM | 1.38 µM | 
21 | S=P(N1CC1)(N1CC1)N1CC1 | > 1320 µM | 3.16 µM | 
22 | Cc1ccc(S/C=C/C(=O)Nc2ccccc2)cc1 | > 37.2 µM | > 37.2 µM and 25.1 µM | 

Row | SMILES | EC50 | IC50 | outcome
23 | Cn1c2ccccc2c2nnc(N/N=C/c3cccnc3)nc21 | > 200 µM | > 200 µM | 
24 | O=C1/C(=C\c2ccccn2)c2ccccc2N1Cc1ccccc1 | > 22.9 µM | 12.6 µM | 
25 | C=C1CC2CC(=O)C(O)C(C1)C2 (stereo unspecified) | > 200 µM | > 200 µM | 
26 | COc1ccc(-c2c(C#N)c(-c3ccccc3)n(NS(=O)(=O)c3ccccc3)c(=O)c2C#N)cc1 | > 200 µM | 44.7 µM | 
27 | CCC(C)C(N)C(=O)NC(CC(N)=O)C(=O)NC(CC(C)C)C(=O)NC(CCCCN)C(=O)NC(C)C(=O)NC(CC(C)C)C(=O)NC(C)C(=O)NC(C)C(=O)NC(CC(C)C)C(=O)NC(C)C(=O)NC(CCCCN)C(=O)NC(CCCCN)C(=O)NC(C(=O)NC(CC(C)C)C(N)=O)C(C)CC (stereo unspecified) | 40.7 µM | 43.7 µM | 
28 | Cc1cn(C2CCN(c3ccccc3)O2)c(=O)[nH]c1=O (stereo unspecified) | > 200 µM | > 200 µM | 
29 | Cc1cccc(C)c1NC(=O)CCc1nc(=S)[nH][nH]1 | > 468 µM | > 468 µM | 
30 | CC(=O)N/N=C1\CC(C)(C)C2CCC1C2 (stereo unspecified) |  |  | inactive
31 | CC(=O)Nc1ccc(/C=C2\SC(=S)N(/C=C3/C(=O)N(c4ccccc4)N=C3C)C2=O)cc1 | > 200 µM | 72.4 µM | 
32 | CC1(c2ccc(Cl)cc2)OC(=O)c2c1ccc1ccccc21 (stereo unspecified) |  |  | inactive
33 | CC1=Nc2ccccc2NC(=O)C1 | > 200 µM | > 200 µM | 
34 | O=C(O)c1ccccc1/C=N/NC1=CS(=O)(=O)C=C1 |  |  | inactive
35 | c1ccc(CC[P+](c2ccccc2)(c2ccccc2)c2ccccc2)cc1 | > 200 µM | 1.29 µM | 
36 | COc1ccc(OC)c(-c2cc(=O)c3c(OC)c(OC)c(OC)c(OC)c3o2)c1 | > 200 µM | 29.5 µM | 
37 | O=C(CC(=O)Nc1ccccc1)NNC(c1cc(N=Nc2ccc(Br)cc2)ccc1O)P(O)O (stereo unspecified) | > 100 µM | 3.98 µM | 
38 | CCOC(=O)NC(=O)c1cn(CCOC(=O)NCCCCCCNC(=O)OCCn2cc(C(=O)NC(=O)OCC)c(=O)[nH]c2=O)c(=O)[nH]c1=O |  |  | inactive
39 | COc1ccc2c(CCNC(=O)/C=C/c3ccccc3)c(C(C)=O)[nH]c2c1[N+](=O)[O-] |  |  | inactive
40 | Cc1nc(N)nc(N)c1CCCc1ccccc1 |  |  | inactive
41 | CC(=O)[O][Hg][CH2]C(O)Cn1c(=O)c2c(ncn2C)n(C)c1=O (stereo unspecified) |  |  | inactive
42 | O=C(CCCCCCCCC(=O)OCCCn1cc(C(=O)NC(=O)OCc2ccccc2)c(=O)[nH]c1=O)OCCCn1cc(C(=O)NC(=O)OCc2ccccc2)c(=O)[nH]c1=O | > 15.8 µM | > 15.8 µM | 
43 | O=c1cc(CO)oc(C(O)c2ccccc2)c1O (stereo unspecified) | > 200 µM | > 200 µM | 
44 | N#C/C(=C/c1ccsc1)C(=O)c1ccccc1 | > 110 µM | > 110 µM | 

Row | SMILES | EC50 | IC50 | outcome
45 | CN1CCN(C(=S)N(C(=O)c2ccco2)c2ccccc2)CC1 | > 759 µM | > 759 µM | 
46 | NC1=NS(=O)(=O)Nc2nc(-c3ccccc3)c(-c3ccccc3)nc21 | > 355 µM | 182 µM | 
47 | Cc1cn(C2OC(CO[Si](C)(C)C(C)(C)C)/C(=C\C#N)C2O[Si](C)(C)C(C)(C)C)c(=O)[nH]c1=O (stereo unspecified) | > 200 µM | > 200 µM | 
48 | CCOC(=O)c1c(SCc2cc(=O)[nH]c(=O)[nH]2)n(-c2ccccc2)c(=S)n(-c2ccccc2)c1=O | 191 µM | > 200 µM | 
49 | C[C@]1(CO)CCC[C@@]2(C)C1CC[C@H]1CC3C[C@]12CC[C@]3(C)O (stereo partly specified) | > 23.4 µM | > 23.4 µM | 
50 | CN1C(=O)C2CCCC(=O)N2c2cccnc21 (stereo unspecified) | > 200 µM | > 200 µM | 
51 | O1[SiH]2[SiH]3O[SiH]3[SiH]3O[SiH]3[SiH]12 (stereo unspecified) |  |  | inactive
52 | Cc1ccc2oc(=O)c(C(=O)Nc3nc(C45CC6CC(CC(C6)C4)C5)cs3)cc2c1 | > 100 µM | > 100 µM | 
53 | COC(=O)c1c2c(cc3c1CC1(Cc4cc5c(c(C(C)=O)c4C1)CCC5)C3)CCC2 (stereo unspecified) | > 6.46 µM | > 6.46 µM | 
54 | O=c1cc(O)c2ccc(O)cc2o1 | > 40.7 µM | > 40.7 µM | 
55 | COc1ccc(P2(=S)OC(C)(C)C(C)(C)O2)cc1 | > 200 µM | > 200 µM | 
56 | O=C1OCc2c1cc1cc3c(cc1c2-c1ccc2c(c1)OCO2)OCO3 |  |  | inactive
57 | Cc1cc2c(C(C)C)c(O)c(O)c(C=Nc3ccccc3O)c2c(O)c1-c1c(C)cc2c(C(C)C)c(O)c(O)c(C=Nc3ccccc3O)c2c1O | > 200 µM | 3.24 µM | 
58 | CC1=C(N2CC2)C(=O)c2nc3n(c2C1=O)CCC3O (stereo unspecified) |  |  | inactive
59 | CC(C)(C)C1COP(=O)(C(C)(C)C)OC1 (stereo unspecified) | > 537 µM | 468 µM | 
60 | Nc1ccn(CCNCCn2cnc3nc(N)[nH]c(=O)c32)c(=O)n1 | > 8.32 µM | > 8.32 µM | 
61 | O=C(O)[C@@H]1CCS(=O)(=O)N1 | > 200 µM | > 200 µM | 
62 | COc1ccc(C2C(=O)c3ccc(OC)cc3OC2c2ccccc2)cc1 (stereo unspecified) | > 200 µM | 87.1 µM | 
63 | O=C(O)CN1CCSc2ccccc2CN(CC(=O)O)CCSc2ccccc2C1 | > 562 µM | > 562 µM | 
64 | CCC(C)(O)c1cn(-c2ccc(Cl)cc2)nn1 (stereo unspecified) | > 708 µM | 324 µM | 
65 | Clc1ccc2nc(-c3ccccc3)nc(Cl)c2c1 |  |  | inactive
66 | CN1N=C(c2ccncc2)OC1c1ccc(C(F)(F)F)cc1 (stereo unspecified) | > 200 µM | 132 µM | 

Row | SMILES | EC50 | IC50 | outcome
67 | CC(=O)OCC1OC(OC2C(CSC3OC(COC(C)=O)C(OC(C)=O)C(OC(C)=O)C3OC(C)=O)OC(OC(C)=O)C(OC(C)=O)C2OC(C)=O)C(OC(C)=O)C(OC(C)=O)C1OC(C)=O (stereo unspecified) | > 36.3 µM | > 36.3 µM | 
68 | CCN(CC)C(=O)CCN1CC1 | > 200 µM | > 200 µM | 
69 | O=C(NOC(=O)c1ccc([N+](=O)[O-])cc1)c1ccc(Cl)cc1 | > 112 µM | > 112 µM | 
70 | Fc1ccc(C2NC(c3ccc(Cl)cc3)c3cccn3-c3sccc32)cc1 (stereo unspecified) | > 100 µM | 79.4 µM | 
71 | O=C(O)CN1CCN(CC(=O)O)CCN(CC(=O)O)CC1 | > 100 µM | 1.82 µM | 
72 | CC(C)CCCC(C)[C@H]1CC[C@H]2[C@@H]3CC[C@H]4C[C@@H](CCC=C(c5cc(Cl)c(OCc6ccc(B7OC(C)(C)C(C)(C)O7)cc6)c(C(=O)OCc6ccc(B7OC(C)(C)C(C)(C)O7)cc6)c5)c5cc(Cl)c(OCc6ccc(B7OC(C)(C)C(C)(C)O7)cc6)c(C(=O)OCc6ccc(B7OC(C)(C)C(C)(C)O7)cc6)c5)CC[C@]4(C)[C@H]3CC[C@]12C (stereo partly specified) | > 200 µM | > 200 µM | 
73 | CCOC(=O)C1Cc2cc(C)c(C)cc2N(C)C1=O (stereo unspecified) | > 200 µM | > 200 µM | 
74 | C#Cc1ccccc1C(=O)OC | > 251 µM | > 251 µM | 
75 | N/C(=N\N=C\c1cc(I)cc(I)c1O)NO | > 200 µM | 10.5 µM | 
76 | Cn1nc(-c2cccc(-c3nn(C)c(=NCCO)s3)n2)sc1=NCCO | > 200 µM | > 200 µM | 
77 | O=S(=O)(/C=N\N=P(c1ccccc1)(c1ccccc1)c1ccccc1)c1ccccc1-c1ccccc1 | > 200 µM | 107 µM | 
78 | CC(C)(C#N)C(C)(C)SSC(C)(C)C(C)(C)C#N | > 178 µM | > 178 µM | 
79 | COc1ccc2[nH]c3c(C)c4ccnc(NCCCN(C)CCCNc5ccc6nnn7c8ccccc8c(=O)c5c67)c4c(C)c3c2c1 | > 0.1 µM | 0.0316 µM | 
80 | O=C(/C=C/c1ccc(O)c(O)c1)OC(Cc1ccc(O)c(O)c1)C(=O)O (stereo unspecified) | > 200 µM | 26.3 µM | 
81 | O/N=C1\C(=C\c2ccc3c(c2)OCCO3)CCCC1C(NO)c1ccc2c(c1)OCCO2 (stereo unspecified) | > 16.6 µM | > 16.6 µM | 
82 | COc1ccc(/C=C/C(=O)c2sc(NC(=S)NC(=O)c3ccccc3F)nc2C)cc1OC | > 74.1 µM | > 74.1 µM | 
83 | CN(C)CCCNC(CC#N)CCC#N (stereo unspecified) | > 200 µM | > 200 µM | 
84 | Cc1ccc(S(=O)(=O)N/N=C(\CCN2CCCC2)CC(c2ccccc2)c2c(O)c3ccccc3oc2=O)cc1 (stereo unspecified) | > 12 µM | > 12 µM | 
85 | CN1C(=O)N/C(=C\c2ccc(S(=O)(=O)NN)cc2)C1=O | > 200 µM | > 100 µM | 
